PubChem BioAssay (NCI)
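All cell lines were grown in 96-well plates and treated with compound for 48 hours. GI50 = concentration required for 50% inhibition of growth. At the TGI there is no net growth.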

Tests used:
Assay in all cases: inhibition of tumour cell growth, NCI panel, 48 h
786-0 renal = tested on: 786-0 renal
A498 renal = tested on: A498 renal
A549 NSCLC = tested on: A549 NSCLC
ACHN renal = tested on: ACHN renal
BT-549 breast = tested on: BT-549 breast
CAKI-1 renal = tested on: CAKI-1 renal
CCRF-CEM leukemia = tested on: CCRF-CEM leukemia
COLO 205 colon = tested on: COLO 205 colon
DU-145 prostate = tested on: DU-145 prostate
EKVX NSCLC = tested on: EKVX NSCLC
HCC-2998 colon = tested on: HCC-2998 colon
HCT-116 colon = tested on: HCT-116 colon
HCT-15 colon = tested on: HCT-15 colon
HL-60(TB) leukemia = tested on: HL-60(TB) leukemia
HOP-62 NSCLC = tested on: HOP-62 NSCLC
HOP-92 NSCLC = tested on: HOP-92 NSCLC
HS 578T breast = tested on: HS 578T breast
HT29 colon = tested on: HT29 colon
IGROV1 ovarian = tested on: IGROV1 ovarian
K-562 leukemia = tested on: K-562 leukemia
KM12 colon = tested on: KM12 colon
LOX IMVI melanoma = tested on: LOX IMVI melanoma
M14 melanoma = tested on: M14 melanoma
MALME-3M melanoma = tested on: MALME-3M melanoma
MCF7 breast = tested on: MCF7 breast
MDA-MB-231 breast = tested on: MDA-MB-231 breast
MDA-MB-435 = tested on: MDA-MB-435
MOLT-4 leukemia = tested on: MOLT-4 leukemia
NCI-H226 lung = tested on: NCI-H226 lung
NCI-H23 lung = tested on: NCI-H23 lung
NCI-H460 lung = tested on: NCI-H460 lung
NCI-H522 lung = tested on: NCI-H522 lung
NCI/ADR-RES ovarian = tested on: NCI/ADR-RES ovarian
OVCAR-3 ovarian = tested on: OVCAR-3 ovarian
OVCAR-4 ovarian = tested on: OVCAR-4 ovarian
OVCAR-5 ovarian = tested on: OVCAR-5 ovarian
OVCAR-8 ovarian = tested on: OVCAR-8 ovarian
PC-3 prostate = tested on: PC-3 prostate
RPMI-8226 leukemia = tested on: RPMI-8226 leukemia
RXF 393 renal = tested on: RXF 393 renal
SF-268 CNS = tested on: SF-268 CNS
SF-295 CNS = tested on: SF-295 CNS
SF-539 CNS = tested on: SF-539 CNS
SK-MEL-2 melanoma = tested on: SK-MEL-2 melanoma
SK-MEL-28 melanoma = tested on: SK-MEL-28 melanoma
SK-MEL-5 melanoma = tested on: SK-MEL-5 melanoma
SK-OV-3 ovarian = tested on: SK-OV-3 ovarian
SN12C renal = tested on: SN12C renal
SNB-19 CNS = tested on: SNB-19 CNS
SNB-75 CNS = tested on: SNB-75 CNS
SR leukemia = tested on: SR leukemia
SW-620 colon = tested on: SW-620 colon
T-47D breast = tested on: T-47D breast
TK-10 renal = tested on: TK-10 renal
U251 CNS = tested on: U251 CNS
UACC-257 melanoma = tested on: UACC-257 melanoma
UACC-62 melanoma = tested on: UACC-62 melanoma
UO-31 renal = tested on: UO-31 renal

CCCCCCCCCCN(CCCCCCCCCC)CC(=O)c1ccc2cc(Br)c3ccccc3c2c1
GI50 (786-0 renal): 1.81 µM
TGI (786-0 renal): 3.39 µM
GI50 (A498 renal): 10.2 µM
TGI (A498 renal): 22.4 µM
GI50 (A549 NSCLC): 4.15 µM
TGI (A549 NSCLC): 14.4 µM
GI50 (ACHN renal): 1.68 µM
TGI (ACHN renal): 3.19 µM
GI50 (BT-549 breast): 10.9 µM
TGI (BT-549 breast): 23.6 µM
GI50 (CAKI-1 renal): 1.7 µM
TGI (CAKI-1 renal): 4.43 µM
GI50 (CCRF-CEM leukemia): 2.36 µM
TGI (CCRF-CEM leukemia): 6.96 µM
GI50 (COLO 205 colon): 1.66 µM
TGI (COLO 205 colon): 3.16 µM
GI50 (DU-145 prostate): 3.69 µM
TGI (DU-145 prostate): 10.3 µM
GI50 (EKVX NSCLC): 5.31 µM
TGI (EKVX NSCLC): 19.8 µM
GI50 (HCC-2998 colon): 1.73 µM
TGI (HCC-2998 colon): 3.16 µM
GI50 (HCT-116 colon): 1.67 µM
TGI (HCT-116 colon): 3.17 µM
GI50 (HCT-15 colon): 1.52 µM
TGI (HCT-15 colon): 3.34 µM
GI50 (HL-60(TB) leukemia): 2.01 µM
TGI (HL-60(TB) leukemia): 4.22 µM
GI50 (HOP-62 NSCLC): 1.63 µM
TGI (HOP-62 NSCLC): 3.4 µM
GI50 (HOP-92 NSCLC): 1.88 µM
TGI (HOP-92 NSCLC): 5.12 µM
GI50 (HS 578T breast): 3.59 µM
TGI (HS 578T breast): 21.7 µM
GI50 (HT29 colon): 1.32 µM
TGI (HT29 colon): 2.77 µM
GI50 (IGROV1 ovarian): 1.84 µM
TGI (IGROV1 ovarian): 3.6 µM
GI50 (K-562 leukemia): 2.05 µM
TGI (K-562 leukemia): 4.84 µM
GI50 (KM12 colon): 1.88 µM
TGI (KM12 colon): 3.66 µM
GI50 (LOX IMVI melanoma): 1.75 µM
TGI (LOX IMVI melanoma): 3.32 µM
GI50 (M14 melanoma): 1.91 µM
TGI (M14 melanoma): 3.53 µM
GI50 (MALME-3M melanoma): 1.71 µM
TGI (MALME-3M melanoma): 3.57 µM
GI50 (MCF7 breast): 1.8 µM
TGI (MCF7 breast): 3.25 µM
GI50 (MDA-MB-231 breast): 1.67 µM
TGI (MDA-MB-231 breast): 3.26 µM
GI50 (MDA-MB-435): 1.76 µM
TGI (MDA-MB-435): 3.42 µM
GI50 (MOLT-4 leukemia): 2.66 µM
TGI (MOLT-4 leukemia): 6.2 µM
GI50 (NCI-H226 lung): 1.77 µM
TGI (NCI-H226 lung): 3.47 µM
GI50 (NCI-H23 lung): 1.78 µM
TGI (NCI-H23 lung): 3.4 µM
GI50 (NCI-H460 lung): 1.98 µM
TGI (NCI-H460 lung): 3.98 µM
GI50 (NCI-H522 lung): 1.56 µM
TGI (NCI-H522 lung): 3.27 µM
GI50 (NCI/ADR-RES ovarian): 1.79 µM
TGI (NCI/ADR-RES ovarian): 3.52 µM
GI50 (OVCAR-3 ovarian): 1.98 µM
TGI (OVCAR-3 ovarian): 3.54 µM
GI50 (OVCAR-4 ovarian): 2.38 µM
TGI (OVCAR-4 ovarian): 5.16 µM
GI50 (OVCAR-5 ovarian): 2.23 µM
TGI (OVCAR-5 ovarian): 5.6 µM
GI50 (OVCAR-8 ovarian): 2.09 µM
TGI (OVCAR-8 ovarian): 4.31 µM
GI50 (PC-3 prostate): 2.67 µM
TGI (PC-3 prostate): 8.95 µM
GI50 (RPMI-8226 leukemia): 2.27 µM
TGI (RPMI-8226 leukemia): 4.88 µM
GI50 (RXF 393 renal): 1.98 µM
TGI (RXF 393 renal): 3.5 µM
GI50 (SF-268 CNS): 3.07 µM
TGI (SF-268 CNS): 9.47 µM
GI50 (SF-295 CNS): 1.75 µM
TGI (SF-295 CNS): 3.53 µM
GI50 (SF-539 CNS): 2.05 µM
TGI (SF-539 CNS): 3.7 µM
GI50 (SK-MEL-2 melanoma): 1.84 µM
TGI (SK-MEL-2 melanoma): 3.48 µM
GI50 (SK-MEL-28 melanoma): 1.84 µM
TGI (SK-MEL-28 melanoma): 3.32 µM
GI50 (SK-MEL-5 melanoma): 1.74 µM
TGI (SK-MEL-5 melanoma): 3.28 µM
GI50 (SK-OV-3 ovarian): 4.94 µM
TGI (SK-OV-3 ovarian): 17.6 µM
GI50 (SN12C renal): 1.6 µM
TGI (SN12C renal): 3.33 µM
GI50 (SNB-19 CNS): 2.04 µM
TGI (SNB-19 CNS): 5.75 µM
GI50 (SNB-75 CNS): 2.1 µM
TGI (SNB-75 CNS): 5.45 µM
GI50 (SR leukemia): 1.3 µM
TGI (SR leukemia): 4.19 µM
GI50 (SW-620 colon): 1.87 µM
TGI (SW-620 colon): 3.75 µM
GI50 (T-47D breast): 2.44 µM
TGI (T-47D breast): 5.98 µM
GI50 (TK-10 renal): 1.76 µM
TGI (TK-10 renal): 3.26 µM
GI50 (U251 CNS): 1.91 µM
TGI (U251 CNS): 3.55 µM
GI50 (UACC-257 melanoma): 2.11 µM
TGI (UACC-257 melanoma): 4.4 µM
GI50 (UACC-62 melanoma): 1.61 µM
TGI (UACC-62 melanoma): 3.35 µM
GI50 (UO-31 renal): 1.86 µM
TGI (UO-31 renal): 7.2 µM
